Laboratory results from ChEMBL document CHEMBL5154637, “Peptidomimetic α-Acyloxymethylketone Warheads with Six-Membered Lactam P1 Glutamine Mimic: SARS-CoV-2 3CL Protease Inhibition, Coronavirus Antiviral Activity, and in Vitro Biological Stability” (J Med Chem, 2022).

Assays:
[1] = target: Replicase polyprotein 1ab (Severe acute respiratory syndrome coronavirus 2, UniProt P0DTD1); assay: Inhibition of SARS-CoV-2 3CL protease incubated for 30 mins by FRET assay
[2] = target: T1, Cathepsin B (Homo sapiens, UniProt P07858); assay: Inhibition of human cathepsin B at 1 uM incubated for 30 mins by fluorometric analysis
[3] = target: T2, Cathepsin S (Homo sapiens, UniProt P25774); assay: Inhibition of human cathepsin S at 1 uM incubated for 30 mins by fluorometric analysis
Target sequence in this assay (P25774 115-331 limits assumed): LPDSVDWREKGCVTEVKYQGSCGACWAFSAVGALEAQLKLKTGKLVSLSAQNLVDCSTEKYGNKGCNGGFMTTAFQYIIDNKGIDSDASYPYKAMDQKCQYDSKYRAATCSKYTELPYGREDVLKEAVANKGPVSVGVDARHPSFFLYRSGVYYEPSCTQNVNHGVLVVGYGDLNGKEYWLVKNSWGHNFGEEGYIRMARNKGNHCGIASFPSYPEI

[4] = in vitro; details: chlorocebus sabaeus, Vero E6 cells
[5] = in vitro; details: human, A549 cells
[6] = test system: SARS-CoV-2; assay: microbe, parasite or virus in culture; details: Severe acute respiratory syndrome coronavirus 2, Vero C1008, 48 h
[7] = Dissociation constant, pKa of the compound; assay type: physicochemical
[8] = Metabolic stability in human plasma measured at 2 hrs by LC-MS analysis; assay type: ADME, cell-free; details: read-out: Stability
[9] = Metabolic stability in human plasma assessed as half life measured upto 2 hrs by LC-MS analysis; assay type: ADME, cell-free
[10] = Selectivity index, ratio of CC50 for cytotoxicity against African green monkey VeroE6 cells assessed as reduction in cell viability to EC50 for antiviral activity against SARS-CoV-2 3CL protease; assay type: toxicity, cell-based
[11] = Antiviral activity against Human coronavirus OC43 infected in human Huh-7 cells assessed as reduction in virus-induced cytopathic effect incubated for 7 days by Celltiter-Glo assay; assay type: functional, cell-based; details: Betacoronavirus 1, OC43, Huh-7, 168 h
[12] = Selectivity index, ratio of CC50 for cytotoxicity against human A549 cells assessed as reduction in cell viability to EC50 for antiviral activity against SARS-CoV-2 3CL protease; assay type: toxicity, cell-based; details: read-out: Ratio CC50/EC50
[13] = Cytotoxicity against human MRC5 cells assessed as reduction in cell viability incubated for 24 hrs by Celltiter-glo luminescent cell viability assay; assay type: toxicity, cell-based
[14] = Cytotoxicity against human Huh-7 cells assessed as reduction in cell viability incubated for 24 hrs by Celltiter-glo luminescent cell viability assay; assay type: toxicity, cell-based
[15] = test system: Human coronavirus 229E; assay: Antiviral activity against Human coronavirus 229E infected in human MRC5 cells assessed as reduction in virus-induced cytopathic effect incubated for 3 days by Celltiter-Glo assay; assay type: functional, organism-based; details: MRC5, 72 h
[16] = Stability in CD-1 mouse plasma assessed as half life at 2 uM measured upto 120 mins by LC-MS/MS analysis; assay type: ADME, cell-free
[17] = Microsomal stability in CD-1 mouse liver microsomes assessed as half life at 1 uM measured upto 60 mins in presence of NADPH by LC-MS/MS analysis; assay type: ADME, Microsome; details: CD-1, mouse, liver microsomes
[18] = Metabolic stability in CD-1 mouse Hepatocytes assessed as half life at 3 uM measured upto 90 mins by LC-MS/MS analysis; assay type: ADME, cell-based, Hepatocyte; details: CD-1, mouse
[19] = Efflux ratio of apparent permeability across basal to apical membrane over apical to basal membrane in human Caco-2 cells at 2 uM with pH 7.4 incubated for 2 hrs by LC-MS analysis; assay type: ADME, cell-based; details: caco-2, pH 7.4, 2 h
[20] = Lipophilicity, log D of the compound at phosphate buffer pH 7.4 by shake flask method based LC-MS/MS analysis; assay type: physicochemical
[21] = Stability of compound in glutathione at pH 7.4 after 24 hrs by LC-MS analysis; assay type: physicochemical; details: read-out: Stability
[22] = Apparent permeability from basolateral to apical side in human Caco-2 cells at 2 uM with pH 7.4 incubated for 2 hrs by LC-MS analysis; assay type: ADME, cell-based; details: Caco-2, pH 7.4
[23] = target: T2, Cathepsin S; assay: Inhibition of human cathepsin S incubated for 30 mins by fluorometric analysis
Target sequence in this assay (P25774 whole entry): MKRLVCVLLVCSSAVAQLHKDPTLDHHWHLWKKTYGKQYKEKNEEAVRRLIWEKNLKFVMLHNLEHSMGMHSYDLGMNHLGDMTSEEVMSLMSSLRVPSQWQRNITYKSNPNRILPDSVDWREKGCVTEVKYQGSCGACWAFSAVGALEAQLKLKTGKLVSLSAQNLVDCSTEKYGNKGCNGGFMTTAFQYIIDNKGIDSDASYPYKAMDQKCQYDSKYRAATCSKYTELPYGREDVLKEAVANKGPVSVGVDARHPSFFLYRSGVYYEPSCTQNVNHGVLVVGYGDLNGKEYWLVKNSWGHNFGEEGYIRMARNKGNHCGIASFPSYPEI

[24] = target: T1, Cathepsin B; assay: Inhibition of human cathepsin B incubated for 30 mins by fluorometric analysis
[25] = in vitro; details: human, Huh-7 cells

SMILES	IC50 [1] [µM]	inhibition [2] [%]	inhibition [3] [%]	CC50 at 24 h [4] [µM]	CC50 at 24 h [5] [µM]	EC50 [6] [µM]	pKa [7]	remaining at 2 h [8] [%]	EC50 [11] [µM]	CC50 at 24 h [13] [µM]	CC50 at 24 h [14] [µM]	EC50 [15] [µM]	further results
COc1cccc2[nH]c(C(=O)N[C@@H](CC(C)C)C(=O)N[C@@H](C[C@@H]3CCCNC3=O)C(=O)CO)cc12	0.0195	26.5	60.8	> 200	> 200	10.1							
COc1cccc2[nH]c(C(=O)N[C@@H](CC(C)C)C(=O)N[C@@H](C[C@@H]3CCCNC3=O)C(=O)COC(=O)c3ccncc3)cc12	0.0329					> 10	1.77						
CC(=O)OCC(=O)[C@H](C[C@@H]1CCNC1=O)NC(=O)[C@H](CC(C)C)NC(=O)OCc1cccc(Cl)c1	1.5			> 200	> 200	21.5							
COc1cccc2[nH]c(C(=O)N[C@@H](CC(C)C)C(=O)N[C@@H](C[C@@H]3CCCNC3=O)C(=O)COC(=O)c3cccnc3)cc12						> 10	2	2					half-life [9]: < 15 min
COc1cccc2[nH]c(C(=O)N[C@@H](CC(C)C)C(=O)N[C@@H](C[C@@H]3CCCNC3=O)C(=O)COC(=O)c3c(C(F)(F)F)cc(C)nc3C)cc12		95	98.4	> 200	> 200	0.47	1.7	99	0.045	> 100	67.6	0.03	selectivity ratio ([10]; read-out: Ratio): > 426; selectivity ratio [12]: > 426; half-life at 2 µM [16]: > 289 min; half-life at 1 µM [17]: 1 min; half-life at 3 µM [18]: 1.9 min; Ratio [19]: 1146; logD [20]: 4.11; remaining at 24 h [21]: > 80%; Papp B→A at 2 h, 2 µM [22]: 289 nm/s
COc1cccc2[nH]c(C(=O)N[C@@H](CC(C)C)C(=O)N[C@@H](C[C@@H]3CCCNC3=O)C(=O)COC(=O)C3(C(F)(F)F)CCCCC3)cc12		38.6	84.2	> 200	> 200	0.6	3.4	97	0.395	> 100	> 100	0.196	selectivity ratio ([10]; read-out: Ratio CC50/EC50): > 333; IC50 [23]: 0.444 µM; selectivity ratio [12]: > 333; IC50 [24]: 2.85 µM
COc1cccc2[nH]c(C(=O)N[C@@H](CC(C)C)C(=O)N[C@@H](C[C@@H]3CCCNC3=O)C(=O)COC(=O)c3c(C)nn(C)c3C)cc12	0.0715					> 10	2.2						
COc1cccc2[nH]c(C(=O)N[C@@H](CC(C)C)C(=O)N[C@@H](C[C@@H]3CCCNC3=O)C(=O)COC(=O)c3c(C)cc(C)nc3C)cc12	0.019	86.7	98.1	> 200	> 200		1.7	100	0.054	> 100	> 100	0.048	IC50 [23]: 0.0515 µM; half-life at 2 µM [16]: > 289 min; half-life at 1 µM [17]: 1.1 min; half-life at 3 µM [18]: 2.7 min; logD [20]: 4.41; IC50 [24]: 0.201 µM; remaining at 24 h [21]: > 80%; Papp B→A at 2 h, 2 µM [22]: 218 nm/s
CCC(CC)COC(=O)[C@H](C)N[P@](=O)(OC[C@H]1O[C@@](C#N)(c2ccc3c(N)ncnn23)[C@H](O)[C@@H]1O)Oc1ccccc1									0.02	> 100	10.4	0.035	selectivity ratio [25]: 518
COc1cccc2[nH]c(C(=O)N[C@@H](CC(C)C)C(=O)N[C@@H](C[C@@H]3CCCNC3=O)C(=O)COC(=O)c3c(C)nc(C)nc3C)cc12				> 200	> 200		2						
